Assay results published in patent publication US20260262643A1, “HERBICIDAL BENZOXAZINES” (FMC CORPORATION, priority 2022, published 2026).

Legend:
ryegrass, Italian [1] = assay: Test C postemergence; assay type: in vivo, Lolium multiflorum; details: 10 days
Procedure, shortened: (§1)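 Soil-applied (pre) and foliar (post, 1–2 leaf, 2–10 cm) sprays; surfactant-containing non-phytotoxic solvent vehicle; loam/sand substrate. Readout: visual % control at 10 d, greenhouse, versus untreated.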

wheat [2] = assay: Test C preemergence; assay type: in vivo, Triticum aestivum; details: 0 to 100 scale (0 no effect, 100 complete control)
Procedure, shortened: as §1

soybean [3] = assay: Test C preemergence; assay type: in vivo, Glycine max; details: 0 to 100 scale (0 no effect, 100 complete control)
Procedure, shortened: as §1

green foxtail [4] = assay: Test C postemergence; assay type: in vivo, Setaria viridis; details: 10 days
Procedure, shortened: as §1

oat, wild [5] = assay: Test C preemergence; assay type: in vivo, Avena fatua; details: 0 to 100 scale (0 no effect, 100 complete control)
Procedure, shortened: as §1

pigweed, palmer [6] = assay: Test C postemergence; assay type: in vivo, Amaranthus palmeri; details: 10 days
Procedure, shortened: as §1

sedge, umbrella = assay: Test D flooded paddy test; assay type: in vivo, Cyperus difformis; details: 250 g ai/ha, applied to paddy water, visual rating after 13 to 14 days, scale 0 to 100 (0 no effect, 100 complete control)
Procedure, shortened: (§2)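 Visual ratings from 0, meaning no effect, to 100, meaning complete control, were assigned against untreated controls 13 to 14 days after compounds were added to the floodwater of pots kept 3 cm deep, with plants at the 2-leaf stage.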

oat, wild [7] = assay: Test C postemergence; assay type: in vivo, Avena fatua; details: 10 days
Procedure, shortened: as §1

ryegrass, Italian [8] = assay: Test C preemergence; assay type: in vivo, Lolium multiflorum; details: 0 to 100 scale (0 no effect, 100 complete control)
Procedure, shortened: as §1

barnyardgrass [9] = assay: Test D flooded paddy test; assay type: in vivo, Echinochloa crus-galli; details: 250 g ai/ha, applied to paddy water, visual rating after 13 to 14 days, scale 0 to 100 (0 no effect, 100 complete control)
Procedure, shortened: as §2

barnyardgrass [10] = assay: Test C preemergence; assay type: in vivo, Echinochloa crusgalli; details: 0 to 100 scale (0 no effect, 100 complete control)
Procedure, shortened: as §1

pigweed, palmer [11] = assay: Test C preemergence; assay type: in vivo, Amaranthus palmeri; details: 0 to 100 scale (0 no effect, 100 complete control)
Procedure, shortened: as §1

barnyardgrass [12] = assay: Test C postemergence; assay type: in vivo, Echinochloa crusgalli; details: 10 days
Procedure, shortened: as §1

kochia [13] = assay: Test C postemergence; assay type: in vivo, Bassia scoparia; details: 10 days
Procedure, shortened: as §1

ragweed [14] = assay: Test C preemergence; assay type: in vivo, Ambrosia artemisiifolia; details: 0 to 100 scale (0 no effect, 100 complete control)
Procedure, shortened: as §1

galium = assay: Test C postemergence; assay type: in vivo, Galium aparine; details: 10 days
Procedure, shortened: as §1

horseweed = assay: Test C postemergence; assay type: in vivo, Erigeron canadensis; details: 10 days
Procedure, shortened: as §1

kochia [15] = assay: Test C preemergence; assay type: in vivo, Bassia scoparia; details: 0 to 100 scale (0 no effect, 100 complete control)
Procedure, shortened: as §1

corn [16] = assay: Test C preemergence; assay type: in vivo, Zea mays; details: 0 to 100 scale (0 no effect, 100 complete control)
Procedure, shortened: as §1

wheat [17] = assay: Test C postemergence; assay type: in vivo, Triticum aestivum; details: 10 days
Procedure, shortened: as §1

rice = assay: Test D flooded paddy test; assay type: in vivo, Oryza sativa; details: 250 g ai/ha, applied to paddy water, visual rating after 13 to 14 days, scale 0 to 100 (0 no effect, 100 complete control)
Procedure, shortened: as §2

corn [18] = assay: Test C postemergence; assay type: in vivo, Zea mays; details: 10 days
Procedure, shortened: as §1

blackgrass [19] = assay: Test C postemergence; assay type: in vivo, Alopecurus myosuroides; details: 10 days
Procedure, shortened: as §1

ragweed [20] = assay: Test C postemergence; assay type: in vivo, Ambrosia artemisiifolia; details: 10 days
Procedure, shortened: as §1

ducksalad = assay: Test D flooded paddy test; assay type: in vivo, Heteranthera limosa; details: 250 g ai/ha, applied to paddy water, visual rating after 13 to 14 days, scale 0 to 100 (0 no effect, 100 complete control)
Procedure, shortened: as §2

soybean [21] = assay: Test C postemergence; assay type: in vivo, Glycine max; details: 10 days
Procedure, shortened: as §1

blackgrass [22] = assay: Test C preemergence; assay type: in vivo, Alopecurus myosuroides; details: 0 to 100 scale (0 no effect, 100 complete control)
Procedure, shortened: as §1

green foxtail [23] = assay: Test C preemergence; assay type: in vivo, Setaria viridis; details: 0 to 100 scale (0 no effect, 100 complete control)
Procedure, shortened: as §1

[24] = 125 g ai/ha, postemergence, 0 to 100 scale, 0 no effect, 100 complete control
[25] = Postemergence, 500 g ai/ha, visual 0 to 100 scale (0 no effect, 100 complete control)
[26] = Preemergence, 500 g ai/ha, visual rating after 10 days
[27] = Test C, preemergence, 125 g ai/ha

SMILES: Cc1ccc(-n2cnc(C3(C(F)(F)F)CC3)n2)cc1C(=O)N1C[C@H](C)Oc2c(Cl)cccc21 [Compound 175]
- Plant response rating, Ryegrass, Italian (ryegrass, Italian [1]; [24]): 50
- Plant response rating, Ryegrass, Italian (ryegrass, Italian [1]; [25]): 60
- Plant response rating, Wheat (wheat [2]; [26]): 20
- Wheat plant response rating (wheat [2]; [27]): 20
- Plant response rating, Soybean (soybean [3]; [26]): 90
- Soybean plant response rating (soybean [3]; [27]): 60
- Plant response rating, Foxtail, Green (green foxtail [4]; [24]): 30
- Plant response rating, Foxtail, Green (green foxtail [4]; [25]): 70
- Plant response rating, Oat, Wild (oat, wild [5]; [26]): 50
- Oat, Wild plant response rating (oat, wild [5]; [27]): 20
- Plant response rating, Pigweed, Palmer (pigweed, palmer [6]; [24]): 90
- Plant response rating, Pigweed, Palmer (pigweed, palmer [6]; [25]): 90
- Plant response rating, Sedge, Umbrella (Flood) (sedge, umbrella): 0
- Plant response rating, Oat, Wild (oat, wild [7]; [24]): 10
- Plant response rating, Oat, Wild (oat, wild [7]; [25]): 20
- Plant response rating, Ryegrass, Italian (ryegrass, Italian [8]; [26]): 90
- Ryegrass, Italian plant response rating (ryegrass, Italian [8]; [27]): 80
- Plant response rating, Barnyardgrass (Flood) (barnyardgrass [9]): 0
- Plant response rating, Barnyardgrass (barnyardgrass [10]; [26]): 100
- Barnyardgrass plant response rating (barnyardgrass [10]; [27]): 70
- Plant response rating, Pigweed, Palmer (pigweed, palmer [11]; [26]): 100
- Pigweed, Palmer plant response rating (pigweed, palmer [11]; [27]): 100
- Plant response rating, Barnyardgrass (barnyardgrass [12]; [24]): 20
- Plant response rating, Barnyardgrass (barnyardgrass [12]; [25]): 50
- Plant response rating, Kochia (kochia [13]; [24]): 90
- Plant response rating, Kochia (kochia [13]; [25]): 100
- Plant response rating, Ragweed (ragweed [14]; [26]): 70
- Ragweed plant response rating (ragweed [14]; [27]): 20
- Plant response rating, Galium (galium; [24]): 90
- Plant response rating, Galium (galium; [25]): 90
- Plant response rating, Horseweed (horseweed; [24]): 80
- Plant response rating, Horseweed (horseweed; [25]): 60
- Plant response rating, Kochia (kochia [15]; [26]): 100
- Kochia plant response rating (kochia [15]; [27]): 40
- Plant response rating, Corn (corn [16]; [26]): 20
- Corn plant response rating (corn [16]; [27]): 0
- Plant response rating, Wheat (wheat [17]; [24]): 10
- Plant response rating, Wheat (wheat [17]; [25]): 10
- Plant response rating, Rice (Flood) (rice): 0
- Plant response rating, Corn (corn [18]; [24]): 0
- Plant response rating, Corn (corn [18]; [25]): 20
- Plant response rating, Blackgrass (blackgrass [19]; [24]): 10
- Plant response rating, Blackgrass (blackgrass [19]; [25]): 50
- Plant response rating, Ragweed (ragweed [20]; [24]): 20
- Plant response rating, Ragweed (ragweed [20]; [25]): 70
- Plant response rating, Ducksalad (Flood) (ducksalad): 0
- Plant response rating, Soybean (soybean [21]; [24]): 100
- Plant response rating, Soybean (soybean [21]; [25]): 100
- Plant response rating, Blackgrass (blackgrass [22]; [26]): 10
- Blackgrass plant response rating (blackgrass [22]; [27]): 0
- Plant response rating, Foxtail, Green (green foxtail [23]; [26]): 100
- Foxtail, Green plant response rating (green foxtail [23]; [27]): 90
